From patent publication EP0791004B1, “ACYLATED BENZYLGLYCOSIDES AS INHIBITORS OF SMOOTH MUSCLE CELL PROLIFERATION” (AMERICAN HOME PRODUCTS CORPORATION, priority 1994, dated 1996)

Key:
[1] = system: Porcine Smooth Muscle Cell; assay: Smooth muscle cell proliferation, 3H thymidine incorporation (serum stimulated); type: cell-based; details: for IC50: 3H thymidine incorporation, read-out: Porcine Smooth Muscle Cell Antiproliferation IC50
Protocol: The ability of the compounds of the present invention to inhibit smooth muscle cell proliferation was established using isolated aortic cells. Porcine aortas were received from a local slaughterhouse and were iced during transit. The aorta was scrupulously cleansed of fatty tissue and rinsed in sterile phosphate-buffered saline with 2% antibiotic/antimycotic (Gibco catalog # 600 - 5240 AG). The tissue was then digested in 10 - 15 mL of "Enzyme Mixture" containing collagenase type I, 165 U/mL; elastase type III, 15 U/mL; BSA, 2 mg/mL; and soybean trypsin inhibitor, 0.375 mg/mL followed by incubation at 37 °C under 5% CO2 for 10 - 15 min. After this treatment, the outer surface adventitia was easily removed by peeling with forceps. The aorta was then longitudinally cut and laid open and the endothelial layer was removed by scraping.
The medial layer of cells was rinsed in enzyme solution, and placed in a new 100 mm dish with 10 mL of enzyme solution. The aorta was minced using a fine pair of scissors and digested for 2 - 3 h at 37 °C in 30 mL of fresh enzyme solution. After digestion, the tissue was homogenized using a sterile Pasteur pipette with a fire polished tip or an eppendorf pipetter with a 200 - 1000 µL sterile pipette tip. The suspension was then centrifuged for 10 minutes at 8000 rpm and the pellet was suspended in 4 - 6 mL of fresh medium and plated onto 4 - 6 100 mm flasks with vented caps. Cells were allowed to grow to confluence and split using 0.25 % trypsin. Cells were evaluated for purity and overall quality using antibody to SMC actin.
Cells were assayed in early passage (generally passage 3 - 7) at sub-confluent conditions. Cultures were grown in 16 mm (24 well) multi-well culture dishes in medium 199 supplemented with 10% fetal bovine serum and 2% antibiotic/ antimycotic. At sub-confluence, the cells were placed in a defined serum free medium (AIM-V; Gibco) for 24 - 48 h prior to initiating the experimental protocol.
Compounds were added to each well at 50 fold dilution (20 µL / well) and the plates were incubated for 24 - 36 h at 37 °C in 5% CO2. Compounds were initially dissolved in 50% ethanol and serially diluted into media. Compounds were routinely assayed at concentrations from 1 to 100 µM. As a control, grade II porcine intestinal mucosal heparin (sodium salt) from Sigma (H-7005) was routinely assayed in all cell preparations at concentrations from 0.1 to 100 µg/mL.
At the completion of the experiment, plates were placed on ice, washed three times with ice cold phosphate buffered saline (PBS) and incubated in ice cold 10% trichloroacetic acid (TCA) for 30 minutes to remove acid soluble proteins. Solution was transferred to scintillation vials containing 0.4 N HCl (500 µL/vial to neutralize NaOH) and each well was rinsed two times with water (500 µL) for a total volume of 2 mL/vial.
Data was obtained, in triplicate, for both control and experimental samples. Control (100%) data was obtained from maximally stimulated cells, as the result of growth factor or serum stimulation. Experimental data was obtained from cells maximally stimulated with growth factor or serum and treated with compound. Data was expressed as a percent of control from which a percent inhibition or IC50 could be determined.

[2] = system: Porcine Smooth Muscle Cell; assay: Cytotoxicity, MTT assay; type: cell-based; details: up to 100 µg/mL; 24 h, medium without serum
Protocol: Briefly, cells were again grown in 24 well plates to 70 - 80 % confluency and, as before, serum deprived for 24 - 48 h prior to initiation of the experimental protocol. To insure that the MTT assay monitored toxicity rather than proliferation, cells were incubated with 100 µg/mL of drug in fresh medium without serum for 24 h at 37 °C in a humidified CO2 incubator. Upon completion of the compound treatment, MTT (3-[4,5-dimethylthiazol-2-yl]-2,5-diphenyltetrazolium bromide) indicator dye was added for 4 h at 37 °C. Cells were then lysed and aliquots from each well were transferred to a 96 well plate for analysis. Absorbance at 570 nm wavelength with a reference wavelength of 630 nm was recorded using an ELISA plate reader. Results were determined as percent viable using no drug (100% viable) and pre-solubilization (0% viable) standards.

[3] = system: normal human plasma; assay: Anticoagulant activity, partial thromboplastin time (APTT) assay; type: biochemical; details: human citrated plasma
Protocol: The anticlotting activity of the compounds of this invention was evaluated in a partial thromboplastin time (APTT) assay using normal human plasma collected from 5 donors according to the procedure of Fenichel et. al. (Clin. Chem. 1964, 10, 69). A BBL Fibrometer automatic precision coagulation timer utilizing a 0.3 mL probe was employed. An Ellagic acid activated partial thromboplastin was used for these experiments. This reagent was added to human citrated plasma equilibrated at 37 °C in a plastic well in the clot timer. Calcium at 37 °C was added, the clot timer was started and the time for fibrin clot formation (in seconds) was recorded. The effect of the compounds, added to plasma, over a concentration of 12.5 - 200 µg/mL was determined. […] An unfractionated heparin comparator was used over the concentration range of 1.25 - 10 µg/mL. Clotting tests at all concentrations were run in triplicate. Analysis of variance for a randomized block design was used to determine the significance of differences observed in the clotting times. […]

[4] = Sus scrofa, read-out: Porcine Smooth Muscle Cell Antiproliferation (% Inhibition at x concentration)

CC(=O)OC[C@H]1O[C@@H](OCc2ccc(C)c(NC(=O)c3cccc([N+](=O)[O-])c3)c2)[C@H](OC(C)=O)[C@@H](OC(C)=O)[C@@H]1OC(C)=O [Example 1, N-[2-Methyl-5-(2,3,4,6-tetra-O-acetyl-β-D-glucopyranosyloxymethyl)phenyl]-3-nitrobenzamide]
inhibition at 50 µg/mL [1, 4]: 79%

CC(=O)OC[C@H]1O[C@@H](OCc2ccc(C)c(NC(=O)c3cccc(N)c3)c2)[C@H](OC(C)=O)[C@@H](OC(C)=O)[C@@H]1OC(C)=O [Example 2, 3-Amino-N-[2-methyl-5-(2,3,4,6-tetra-O-acethyl-β-D-glucopyranosyloxymethyl)phenyl]benzamide]
inhibition at 50 µg/mL [1, 4]: 23%

CC(=O)OC[C@H]1O[C@H](O[C@H]2[C@H](OC(C)=O)[C@@H](OC(C)=O)[C@H](OCc3ccc(C)c(N)c3)O[C@@H]2COC(C)=O)[C@H](OC(C)=O)[C@@H](OC(C)=O)[C@@H]1OC(C)=O [Example 3, 5-(Hepta-O-acetyl-β-maltosyloxymethyl)-2-methylphenylamine]
toxicity (MTT, percent viable) [2]: no toxicity
anticoagulant activity (APTT assay) [3]: no anticoagulant activity

CC(=O)OC[C@H]1O[C@H](O[C@H]2[C@H](OC(C)=O)[C@@H](OC(C)=O)[C@H](OCc3ccc(C)c(NC(=O)c4cccc([N+](=O)[O-])c4)c3)O[C@@H]2COC(C)=O)[C@H](OC(C)=O)[C@@H](OC(C)=O)[C@@H]1OC(C)=O [Example 4, N-[5-(Hepta-O-acetyl-β-D-maltosyloxymethyl)-2-methylphenyl]-3-nitrobenzamide]
inhibition at 50 µg/mL [1, 4]: 13%

CC(=O)OC[C@H]1O[C@H](O[C@H]2[C@H](OC(C)=O)[C@@H](OC(C)=O)[C@H](OCc3ccc(C)c(NC(=O)c4cccc(N)c4)c3)O[C@@H]2COC(C)=O)[C@H](OC(C)=O)[C@@H](OC(C)=O)[C@@H]1OC(C)=O [Example 5, N-[5-(Hepta-O-acetyl-β-D-maltosyloxymethyl)-2-methylphenyl]-3-aminobenzamide]
inhibition at 50 µg/mL [1, 4]: 44%

CC(=O)Nc1cccc(C(=O)Nc2cc(CO[C@@H]3O[C@H](COC(C)=O)[C@@H](O[C@H]4O[C@H](COC(C)=O)[C@@H](OC(C)=O)[C@H](OC(C)=O)[C@H]4OC(C)=O)[C@H](OC(C)=O)[C@H]3OC(C)=O)ccc2C)c1 [Example 6, 3-Acetylamino-N-[5-(hepta-O-acetyl-β-D-maltosyloxymethyl)-2-methylphenyl]benzamide]
toxicity (MTT, percent viable) [2]: no toxicity

CCC(=O)Nc1cc(CO[C@@H]2O[C@H](COC(C)=O)[C@@H](O[C@H]3O[C@H](COC(C)=O)[C@@H](OC(C)=O)[C@H](OC(C)=O)[C@H]3OC(C)=O)[C@H](OC(C)=O)[C@H]2OC(C)=O)ccc1C [Example 11, N-[5-(Hepta-O-acetyl-β-D-maltosyloxymethyl)-2-methylphenyl]propionamide]
toxicity (MTT, percent viable) [2]: no toxicity
anticoagulant activity (APTT assay) [3]: no anticoagulant activity

CC(=O)OC[C@H]1O[C@H](O[C@H]2[C@H](OC(C)=O)[C@@H](OC(C)=O)[C@H](OCc3ccc(C)c(NC(=O)C4CC4)c3)O[C@@H]2COC(C)=O)[C@H](OC(C)=O)[C@@H](OC(C)=O)[C@@H]1OC(C)=O [Example 14, Cyclopropanecarboxylic Acid N-[5-(Hepta-O-acetyl-β-D-maltosyloxymethyl)-2-methylphenyl]amide]
toxicity (MTT, percent viable) [2]: no toxicity

CC(=O)OC[C@H]1O[C@H](O[C@H]2[C@H](OC(C)=O)[C@@H](OC(C)=O)[C@H](OCc3ccc(C)c(NC(=O)C4CCCC4)c3)O[C@@H]2COC(C)=O)[C@H](OC(C)=O)[C@@H](OC(C)=O)[C@@H]1OC(C)=O [Example 15, Cyclopentanecarboxylic Acid N-[5-(Hepta-O-acetyl-β-D-maltosyloxymethyl)-2-methylphenyl]amide]
toxicity (MTT, percent viable) [2]: no toxicity

CC(=O)OC[C@H]1O[C@H](O[C@H]2[C@H](OC(C)=O)[C@@H](OC(C)=O)[C@H](OCc3ccc(C)c(NC(=O)CCC4CCCC4)c3)O[C@@H]2COC(C)=O)[C@H](OC(C)=O)[C@@H](OC(C)=O)[C@@H]1OC(C)=O [Example 16, N-[5-(Hepta-O-acetyl-β-D-maltosyloxymethyl)-2-methylphenyl]-3-cyclopentylpropionamide]
toxicity (MTT, percent viable) [2]: no toxicity

CC(=O)OC[C@H]1O[C@H](O[C@H]2[C@H](OC(C)=O)[C@@H](OC(C)=O)[C@H](OCc3ccc(C)c(NS(=O)(=O)c4ccc(C)cc4)c3)O[C@@H]2COC(C)=O)[C@H](OC(C)=O)[C@@H](OC(C)=O)[C@@H]1OC(C)=O [Example 24, N-[5-(Hepta-O-acetyl-β-D-maltosyloxymethyl)-2-methylphenyl]-4-methylbenzenesulfonamide]
inhibition at 40 µM [1, 4]: 61%

CC(=O)OC[C@H]1O[C@H](O[C@H]2[C@H](OC(C)=O)[C@@H](OC(C)=O)[C@H](OCc3ccc(N)c(C)c3)O[C@@H]2COC(C)=O)[C@H](OC(C)=O)[C@@H](OC(C)=O)[C@@H]1OC(C)=O [Example 29, 4-(Hepta-O-acetyl-β-D-maltosyloxymethyl)-2-methylphenylamine]
inhibition at 40 µM [1, 4]: 70%

CC(=O)OC[C@H]1O[C@H](O[C@H]2[C@H](OC(C)=O)[C@@H](OC(C)=O)[C@H](OCc3ccc(N(S(=O)(=O)c4ccc([N+](=O)[O-])cc4)S(=O)(=O)c4ccc([N+](=O)[O-])cc4)c(C)c3)O[C@@H]2COC(C)=O)[C@H](OC(C)=O)[C@@H](OC(C)=O)[C@@H]1OC(C)=O [Example 31, N-[4-(Hepta-O-acetyl-β-D-maltosyloxymethyl)-2-methylphenyl]-4-nitro-N-(4-nitrophenylsulfonyl)benzenesulfonamide]
inhibition at 100 µM ([1]; Sus scrofa, at 100 µM, read-out: Porcine Smooth Muscle Cell Antiproliferation (% Inhibition at x concentration)): 37%

CCC(=O)OC[C@H]1O[C@H](O[C@H]2[C@H](OC(=O)CC)[C@@H](OC(=O)CC)[C@H](OCc3ccc(C)c(N(C(=O)CC)S(=O)(=O)c4ccc(N(C(=O)CC)S(C)(=O)=O)cc4)c3)O[C@@H]2COC(=O)CC)[C@H](OC(=O)CC)[C@@H](OC(=O)CC)[C@@H]1OC(=O)CC [Example 33, N-Propionyl-4-[propionyl(methanesulfonyl)amino]-N-[5-(hepta-O-propionyl-β-D-maltosyloxymethyl)-2-methylphenyl]benzenesulfonamide]
inhibition at 20 µM ([1]; Sus scrofa, at 20 µM, read-out: Porcine Smooth Muscle Cell Antiproliferation (% Inhibition at x concentration)): 30%

Butane-1-sulfonic Acid N-[5-(Hepta-O-acetyl-β-D-maltosyloxymethyl)-2-methylphenyl]amide [Example 28]
IC50 [1]: 9 µM

N-{3-[2-(Hepta-O-acetyl-β-D-maltosyloxymethyl)-6-methylphenylcarbamoyl]phenyl}-3,5-di-tert-butyl-4-hydroxybenzamide [Example 7]
IC50 [1]: 185 µM
